Laboratory results: ChEMBL document CHEMBL4715829, “Heterodimeric Rifampicin-Tobramycin conjugates break intrinsic resistance of Pseudomonas aeruginosa to doxycycline and chloramphenicol in vitro and in a Galleria mellonella in vivo model” (Eur J Med Chem, 2019)

Assays:
Assay type in all cases: functional
Pseudomonas aeruginosa [1] = experiment: Antibacterial activity against Pseudomonas aeruginosa 91433 assessed as fractional inhibitory concentration incubated for 18 hrs in presence of tigecycline by broth microdilution assay
Pseudomonas aeruginosa [2] = experiment: Antibacterial activity against Pseudomonas aeruginosa 101885 assessed as fractional inhibitory concentration index incubated for 18 hrs in presence of tigecycline by broth microdilution assay
Pseudomonas aeruginosa [3] = experiment: Antibacterial activity against Pseudomonas aeruginosa 259-96918 assessed as potentiation of doxycycline-induced antibacterial activity by measuring doxycycline MIC at 7.6 uM incubated for 18 hrs in presence of doxycycline by broth microdilution assay (reference value: 32 ug/ml)

| Structure (SMILES) | FIC (Pseudomonas aeruginosa [1]) | fractional inhibitory concentration index (FICI) (Pseudomonas aeruginosa [2]) | MIC (Pseudomonas aeruginosa [3]) |
| --- | --- | --- | --- |
| CO[C@H]1/C=C/O[C@@]2(C)Oc3c(C)c(O)c4c(O)c(c(/C=N/N5CCN(Cc6cn(CCCCCCO[C@@H]7[C@@H](O[C@H]8O[C@H](CO)[C@@H](O)[C@H](N)[C@H]8O)[C@H](N)C[C@H](N)[C@H]7O[C@H]7O[C@H](CN)[C@@H](O)C[C@H]7N)nn6)CC5)c(O)c4c3C2=O)NC(=O)/C(C)=C\C=C\[C@H](C)[C@H](O)[C@@H](C)[C@@H](O)[C@@H](C)[C@H](OC(C)=O)[C@@H]1C.Cl.Cl.Cl.Cl.Cl | <0.125 | 0.19 | – |
| CO[C@H]1/C=C/O[C@@]2(C)Oc3c(C)c(O)c4c(O)c(c(/C=N/N5CCN(Cc6cn(CCCCCCCCCCCCO[C@@H]7[C@@H](O[C@H]8O[C@H](CO)[C@@H](O)[C@H](N)[C@H]8O)[C@H](N)C[C@H](N)[C@H]7O[C@H]7O[C@H](CN)[C@@H](O)C[C@H]7N)nn6)CC5)c(O)c4c3C2=O)NC(=O)/C(C)=C\C=C\[C@H](C)[C@H](O)[C@@H](C)[C@@H](O)[C@@H](C)[C@H](OC(C)=O)[C@@H]1C.O=C(O)C(F)(F)F.O=C(O)C(F)(F)F.O=C(O)C(F)(F)F.O=C(O)C(F)(F)F.O=C(O)C(F)(F)F | – | – | 0.25 µg/mL |
